The text below walks through data of PubChem BioAssay (NCI).

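Exposure lasted 48 hours, with cells grown in 96-well plates and compounds tested at five concentrations. Here, GI50 denotes the concentration required for 50% inhibition of growth. TGI denotes the concentration required for complete inhibition of growth.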

In one test the test system is OVCAR-4 ovarian. Kind of test: inhibition of tumour cell growth, NCI panel, 48 h.
As for `COc1ccc2c(c1)OC1=C(C(=O)OC1)C2c1cc(OC)c2c(c1)OCCO2` (configuration not stated), the GI50 is 0.173 µM and the TGI was over 100 µM.
As for `C=CC[P@]1(=O)O[C@H](c2ccccc2)[C@H](C)N1C`, the TGI is over 100 µM.
The same measure, in the same setting: under `O=C(Nc1cccc(O)c1)C(=O)C1C(=O)NC(=S)NC1=O` stands over 100 µM.
Molecule `O=C1N/C(=C\[N+](=O)[O-])c2ccccc21` displayed a TGI of over 100 µM.
Take `CCN(CC)CCNC(Cc1ccccc1)c1ccc(OCc2ccccc2)cc1` (configuration not stated): the GI50 is 5.42 µM and the TGI came to 19.4 µM.
Take `COC(=O)C(=O)CC(=O)CCn1[nH]c(=O)c(Cl)c(Cl)c1=O`: the TGI is over 100 µM.
The same measure, in the same setting: the value for `OCC12C=CC(C1)c1ccccc12` (configuration not stated) was over 100 µM.
In turn, `CCOC1C(Br)Cn2c(=O)c3cc4ccccc4cc3c(=O)n2C1C` (configuration not stated) came in with a TGI of over 100 µM.
On the same count and under the same terms, the value for `COc1ccc(NC(=O)CC/C(CC(=O)c2ccco2)=N/NC(=O)C(N)=O)cc1` was over 100 µM.
Regarding `CCOC(=O)[CH-]C(=O)C12CC3CC(CC(C3)C1)C2.CCOC(=O)[CH-]C(=O)C12CC3CC(CC(C3)C1)C2.CC[O-].CC[O-].[Ti+4]`, the GI50 is over 100 µM and the TGI was over 100 µM.
Molecule `CC(=O)C1C(c2ccccc2)C2(C)OC(=O)C(C#N)C12C` (configuration not stated) yielded a TGI of over 100 µM.
Molecule `C[C@]12CC=CC(=O)[C@@]1(C)CCC(=O)C2` returned a TGI of over 100 µM.
Same read-out and setting: the value for `CC(=O)Oc1cc2c(cc1OC(C)=O)C1(C)CCC2(C)c2cc(OC(C)=O)c(OC(C)=O)cc21` was 32.1 µM.
On the same count and under the same terms, under `CCCC1(CC(=O)O)OCCc2c1[nH]c1ccccc21` (configuration not stated) stands over 100 µM; under `COc1ccc2nc3cc(Cl)ccc3c(Sc3ccc([N+](=O)[O-])cc3C)c2c1`, over 100 µM.

The next test concerns SK-OV-3 ovarian. Kind of test: inhibition of tumour cell growth, NCI panel, 48 h.
Consider `CCC1=CCN(c2cc(C)ccn2)OC1c1ccc(OC)cc1` (configuration not stated), for which the TGI was over 100 µM.
Molecule `CC(=O)Oc1c(C)c(-c2ccccc2)c(C)c(-c2ccccc2)c1C(=S)c1ccccc1` registered a TGI of over 100 µM.
`N#CCC(=O)N/N=C1/C(=O)N(c2ccc(Cl)cc2)C(=O)C(=O)C1c1nc2ccccc2s1` (configuration not stated) showed a TGI of over 100 µM.
The same measure, in the same setting: under `CCCCCCCCCCCC(=O)OCCOCCOCCOCCOCCOC(=O)CCCCCCCCCCC` stands over 100 µM; under `COc1ccc(C=O)cc1O[Si](C)(C)C(C)(C)C`, over 100 µM.
Turning to `O=C1COc2cc(NC(=S)Nc3ccccc3)ccc2N1`, the TGI is over 100 µM.
Molecule `O=S(=O)(C1=CC(S(=O)(=O)c2ccccc2)CN(Cc2ccccc2)C1c1cccc2ccccc12)c1ccccc1` (configuration not stated) displayed a TGI of over 69 µM.
`O=C1C=C(Nc2ccccc2C(=O)CC(=O)C(=O)Nc2cccc([N+](=O)[O-])c2)c2ccccc2C1=O` gave a TGI of over 100 µM.
On the same count and under the same terms, under `O=C(Nc1ccc(Cl)cc1)C1C(=O)C(=O)N(c2ccc(Cl)cc2)C1=O` (configuration not stated) stands over 100 µM.
For `CCC[CH2][Sn]([CH2]CCC)([O]C(=O)CN)[O]C(=O)CN`, the GI50 was over 100 µM and the TGI was over 100 µM.
Regarding `COc1ccc2c(c1)C(=O)CCc1cc(OC)c(OC)c(OC)c1-2`, the TGI is over 100 µM.
Take `O=C(Nc1ccc(C(F)(F)F)cc1[N+](=O)[O-])C(=O)C1NC(=S)NC1=O` (configuration not stated): the TGI is over 100 µM.
On to `COc1cc(NCC(C#N)C#N)ccc1N=Nc1ccc(Cl)cc1`, for which the TGI was found to be 83.8 µM.
Still for that read-out and setting: the value for `CC(=O)c1ccc(NC(=O)/C(CC(=O)c2sc(-c3cccnc3)nc2C)=N/NC(N)=O)cc1` was over 100 µM.
Still for that read-out and setting: the value for `Cc1ccc(S(=O)(=O)OC2CC=CC2)cc1` was over 100 µM.
With `COc1ccc2c(c1)OC1=C(C(=O)OC1)C2c1cc(OC)c2c(c1)OCCO2` (configuration not stated), the GI50 was 0.0716 µM and the TGI is 7.33 µM.
`C=CC[P@]1(=O)O[C@H](c2ccccc2)[C@H](C)N1C` returned a TGI of over 100 µM.
Consider `O=C(Nc1cccc(O)c1)C(=O)C1C(=O)NC(=S)NC1=O`, for which the TGI is over 100 µM.
The same measure, in the same setting: the value for `O=C1N/C(=C\[N+](=O)[O-])c2ccccc21` was over 100 µM.
As to `CCN(CC)CCNC(Cc1ccccc1)c1ccc(OCc2ccccc2)cc1` (configuration not stated), the GI50 was 10.9 µM and the TGI was determined as 23.6 µM.
For the molecule `OCC12C=CC(C1)c1ccccc12` (configuration not stated), the TGI is over 100 µM.
Same read-out and setting: the value for `CCOC1C(Br)Cn2c(=O)c3cc4ccccc4cc3c(=O)n2C1C` (configuration not stated) was over 100 µM; that for `COc1ccc(NC(=O)CC/C(CC(=O)c2ccco2)=N/NC(=O)C(N)=O)cc1` was over 100 µM.
As for `NC(CCCC(N)P(=O)(O)O)P(=O)(O)O` (configuration not stated), the TGI is over 100 µM.
Take `CCOC(=O)[CH-]C(=O)C12CC3CC(CC(C3)C1)C2.CCOC(=O)[CH-]C(=O)C12CC3CC(CC(C3)C1)C2.CC[O-].CC[O-].[Ti+4]`: the GI50 was over 100 µM and the TGI is over 100 µM.
Molecule `CC(=O)C1C(c2ccccc2)C2(C)OC(=O)C(C#N)C12C` (configuration not stated) had a TGI of over 100 µM.
`C[C@]12CC=CC(=O)[C@@]1(C)CCC(=O)C2` registered a TGI of over 100 µM.
Still for that read-out and setting: the value for `CC(=O)Oc1cc2c(cc1OC(C)=O)C1(C)CCC2(C)c2cc(OC(C)=O)c(OC(C)=O)cc21` was 72.5 µM; that for `CCCC1(CC(=O)O)OCCc2c1[nH]c1ccccc21` (configuration not stated) was over 100 µM.
Still for that read-out and setting: the value for `COc1ccc2nc3cc(Cl)ccc3c(Sc3ccc([N+](=O)[O-])cc3C)c2c1` was over 100 µM.

For the next test, the system named is MCF7 breast. Kind of test: inhibition of tumour cell growth, NCI panel, 48 h.
`COc1ccc2c(c1)C(=O)CCc1cc(OC)c(OC)c(OC)c1-2` came in with a TGI of over 100 µM.
On to `COc1ccc2c(c1)OC1=C(C(=O)OC1)C2c1cc(OC)c2c(c1)OCCO2` (configuration not stated), for which the GI50 is 0.0352 µM and the TGI is over 100 µM.
Taken in the same sequence, the figures for `CCN(CC)CCNC(Cc1ccccc1)c1ccc(OCc2ccccc2)cc1` (configuration not stated) were 3.03 µM and 12 µM.

In a further test the test system is SK-MEL-5 melanoma. Kind of test: inhibition of tumour cell growth, NCI panel, 48 h.
Turning to `CCC1=CCN(c2cc(C)ccn2)OC1c1ccc(OC)cc1` (configuration not stated), the TGI was found to be 30.5 µM.
On the same count and under the same terms, under `CC(=O)Oc1c(C)c(-c2ccccc2)c(C)c(-c2ccccc2)c1C(=S)c1ccccc1` stands over 100 µM.
For `N#CCC(=O)N/N=C1/C(=O)N(c2ccc(Cl)cc2)C(=O)C(=O)C1c1nc2ccccc2s1` (configuration not stated), the TGI was over 100 µM.
Same read-out and setting: under `CCCCCCCCCCCC(=O)OCCOCCOCCOCCOCCOC(=O)CCCCCCCCCCC` stands over 100 µM; under `COc1ccc(C=O)cc1O[Si](C)(C)C(C)(C)C`, over 100 µM.
